Source: patent publication US20220144848A1, “SUBSTITUTED OXOPYRIDINE DERIVATIVES” (Bayer Aktiengesellschaft, priority 2018, published 2022)

Experiments:
human plasma kallikrein = target: T1, human plasma kallikrein (Homo sapiens, UniProt P03952); test: Determination of the plasma kallikrein activity (fluorogenic peptide substrate H-Pro-Phe-Arg-AMC); assay type: biochemical; conditions: plasma kallikrein from Kordia, 15 min preincubation, 30 min at 22° C., fluorescence; some as mean values from multiple determinations
T1 construct: purchased Kordia
T1 sequence (P03952 391-638 limits assumed): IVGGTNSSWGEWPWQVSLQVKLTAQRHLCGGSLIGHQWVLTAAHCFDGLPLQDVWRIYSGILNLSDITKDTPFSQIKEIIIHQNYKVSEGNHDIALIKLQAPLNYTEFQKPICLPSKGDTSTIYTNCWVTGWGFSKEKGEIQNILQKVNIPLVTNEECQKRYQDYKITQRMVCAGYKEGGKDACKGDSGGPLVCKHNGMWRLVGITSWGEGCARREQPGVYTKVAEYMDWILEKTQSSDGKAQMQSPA
T1 sequence (P03952 20-390 partner limits assumed): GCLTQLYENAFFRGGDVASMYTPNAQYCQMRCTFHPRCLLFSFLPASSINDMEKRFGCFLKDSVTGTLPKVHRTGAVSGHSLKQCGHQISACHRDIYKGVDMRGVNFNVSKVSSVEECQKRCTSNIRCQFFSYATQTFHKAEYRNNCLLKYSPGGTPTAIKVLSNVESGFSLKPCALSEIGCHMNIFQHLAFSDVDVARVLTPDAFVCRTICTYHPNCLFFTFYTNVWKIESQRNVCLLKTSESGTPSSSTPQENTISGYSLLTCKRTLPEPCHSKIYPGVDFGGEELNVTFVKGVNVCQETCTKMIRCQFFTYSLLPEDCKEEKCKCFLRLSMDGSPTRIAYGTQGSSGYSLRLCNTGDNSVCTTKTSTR
Description: (§1) To determine the plasma kallikrein inhibition of the substances according to the invention, a biochemical test system is used which utilizes the reaction of a peptidic plasma kallikrein substrate to determine the enzymatic activity of human plasma kallikrein. Here, plasma kallikrein cleaves from the peptidic plasma kallikrein substrate the C-terminal aminomethylcoumarin (AMC), the fluorescence of which is measured. The determinations are carried out in microtitre plates.
Test substances are dissolved in dimethyl sulfoxide and serially diluted in dimethyl sulfoxide (3000 μM to 0.0078 μM; resulting final concentrations in the test: 50 μM to 0.00013 μM). In each case 1 μl of the diluted substance solutions is placed into the wells of white microtitre plates from Greiner (384 wells). 20 μl of assay buffer (50 mM Tris/HCl pH 7.4; 100 mM sodium chloride solution; 5 mM of calcium chloride solution; 0.1% of bovine serum albumin) and 20 μl of plasma kallikrein from Kordia (0.6 nM in assay buffer) are then added successively. After 15 min of incubation, the enzyme reaction is started by addition of 20 μl of the substrate H-Pro-Phe-Arg-AMC dissolved in assay buffer (10 μM in assay buffer) from Bachem, the mixture is incubated at room temperature (22° C.) for 30 min and fluorescence is then measured (excitation: 360 nm, emission: 460 nm). The measured emissions of the test batches with test substance are compared to those of control batches without test substance (only dimethyl sulfoxide instead of test substance in dimethyl sulfoxide), and IC50 values are calculated from the concentration/activity relationships. Activity data from this test are listed in Table B below (some as mean values from multiple independent individual determinations): […]

human factor XIa = target: T2, human factor XIa (Homo sapiens, UniProt P03951); test: Measurement of FXIa inhibition (fluorogenic peptide substrate Boc-Glu(OBzl)-Ala-Arg-AMC); assay type: biochemical; conditions: factor XIa from Kordia, 15 min preincubation, 30 min at 22° C., fluorescence; some as mean values from multiple determinations
T2 construct: purchased Kordia
T2 sequence (P03951 388-625 limits assumed): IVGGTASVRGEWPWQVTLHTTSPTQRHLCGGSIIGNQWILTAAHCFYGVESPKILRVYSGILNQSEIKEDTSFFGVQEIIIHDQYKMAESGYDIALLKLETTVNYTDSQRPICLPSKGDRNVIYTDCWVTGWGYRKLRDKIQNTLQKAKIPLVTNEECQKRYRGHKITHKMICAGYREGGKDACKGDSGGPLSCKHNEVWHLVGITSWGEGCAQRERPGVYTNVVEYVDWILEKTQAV
T2 sequence (P03951 19-387 partner limits assumed): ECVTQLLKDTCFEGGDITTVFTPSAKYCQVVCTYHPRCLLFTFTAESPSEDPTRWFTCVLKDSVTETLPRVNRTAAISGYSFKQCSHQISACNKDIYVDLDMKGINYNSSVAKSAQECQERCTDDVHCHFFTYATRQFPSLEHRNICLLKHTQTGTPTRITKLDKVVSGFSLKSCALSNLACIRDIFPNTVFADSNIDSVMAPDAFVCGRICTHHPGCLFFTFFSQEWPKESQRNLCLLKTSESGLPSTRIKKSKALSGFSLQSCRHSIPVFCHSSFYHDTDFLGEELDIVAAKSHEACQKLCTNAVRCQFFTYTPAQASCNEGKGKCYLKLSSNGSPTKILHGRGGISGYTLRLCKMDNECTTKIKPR
Description: as §1, with “The factor XIa” for “To determine the plasma kallikrein”, “invention is determined using” for “invention,”, “system” for “system is used”, “factor XIa” for “plasma kallikrein”, “factor XIa.” for “plasma kallikrein.”
Test substances are dissolved in dimethyl sulfoxide and serially diluted in dimethyl sulfoxide (3000 μM to 0.0078 μM; resulting final concentrations in the test: 50 μM to 0.00013 μM). In each case 1 μl of the diluted substance solutions is placed into the wells of white microtitre plates from Greiner (384 wells). 20 μl of assay buffer (50 mM of Tris/HCl pH 7.4; 100 mM of sodium chloride; 5 mM of calcium chloride; 0.1% of bovine serum albumin) and 20 μl of factor XIa from Kordia (0.45 nM in assay buffer) are then added successively. After 15 min of incubation, the enzyme reaction is started by addition of 20 μl of the factor XIa substrate Boc-Glu(OBzl)-Ala-Arg-AMC dissolved in assay buffer (10 μM in assay buffer) from Bachem, the mixture is incubated at room temperature (22° C.) for 30 min and fluorescence is then measured (excitation: 360 nm, emission: 460 nm). The measured emissions of the test batches with test substance are compared to those of control batches without test substance (only dimethyl sulfoxide instead of test substance in dimethyl sulfoxide), and IC50 values are calculated from the concentration/activity relationships.

Row | SMILES | IC50 (human plasma kallikrein) [nM] | IC50 (human factor XIa) [nM]
1 | CC1Cc2ccc(Cl)cc2-c2cc(=O)n(C(C[C@@H]3CCCCO3)C(=O)Nc3ccc(C(N)=O)nc3)cc2CO1 (mixture of isomers) [Example 3, 5-{2-(11-Chloro-7-methyl-2-oxo-7,8-dihydro-2H-[3]benzoxocino[5,6-c]pyridin-3(5H)-yl)-3-[(2S)-tetrahydro-2H-pyran-2-yl]propanamido}pyridine-2-carboxamide] | 510 | 6
2 | CC1Cc2ccc(Cl)cc2-c2cc(=O)n(C(C[C@@H]3CCCCO3)C(=O)Nc3ccc(C(N)=O)cc3)cc2CO1 (mixture of isomers) [Example 5, 4-({2-(11-Chloro-7-methyl-2-oxo-7,8-dihydro-2H-[3]benzoxocino[5,6-c]pyridin-3(5H)-yl)-3-[(2S)-tetrahydro-2H-pyran-2-yl]propanoyl}amino)benzamide] | 400 | 4.3
3 | CC1Cc2ccc(Cl)cc2-c2cc(=O)n(C(C[C@@H]3COCCO3)C(=O)Nc3ccc(C(N)=O)c(F)c3)cc2CO1 (mixture of isomers) [Example 7, 4-({2-(11-Chloro-7-methyl-2-oxo-7,8-dihydro-2H-[3]benzoxocino[5,6-c]pyridin-3(5H)-yl)-3-[(2R)-1,4-dioxan-2-yl]propanoyl}amino)-2-fluorobenzamide] | 780 | 14
4 | CC1Cc2ccc(Cl)cc2-c2cc(=O)n(C(C[C@@H]3COCCO3)C(=O)Nc3ccc(C(N)=O)cc3)cc2CO1 (mixture of isomers) [Example 9, 4-({2-(11-Chloro-7-methyl-2-oxo-7,8-dihydro-2H-[3]benzoxocino[5,6-c]pyridin-3(5H)-yl)-3-[(2R)-1,4-dioxan-2-yl]propanoyl}amino)benzamide] | 260 | 4.5
5 | CC1Cc2ccc(Cl)cc2-c2cc(=O)n(C(C[C@@H]3COCCO3)C(=O)Nc3ccc4nn(C)nc4c3)cc2CO1 (mixture of isomers) [Example 11, 2-(11-Chloro-7-methyl-2-oxo-7,8-dihydro-2H-[3]benzoxocino[5,6-c]pyridin-3(5H)-yl)-3-[(2R)-1,4-dioxan-2-yl]-N-(2-methyl-2H-benzotriazol-5-yl)propanamide] | 190 | 19
6 | C[C@@H]1Cc2ccc(Cl)cc2-c2cc(=O)n(C(CCOC(F)F)C(=O)Nc3ccc(C(N)=O)cc3)cc2CO1 (mixture of isomers) [Example 16, 4-{2-[(7R)-11-Chlor-7-methyl-2-oxo-7,8-dihydro-2H-[3]benzoxocino[5,6-c]pyridin-3(5H)-yl]-4-(difluoromethoxy)butanamido}benzamide] | 110 | 3.5
7 | C[C@@H]1Cc2ccc(Cl)cc2-c2cc(=O)n(C(C[C@H](C)OC(F)F)C(=O)Nc3ccc(C(N)=O)cc3)cc2CO1 (mixture of isomers) [Example 18, 4-{[(4S)-2-[(7R)-11-Chloro-7-methyl-2-oxo-7,8-dihydro-2H-[3]benzoxocino[5,6-c]pyridin-3(5H)-yl]-4-(difluoromethoxy)pentanoyl]amino}benzamide] | 140 | 3.7
8 | CC1Cc2ccc(Cl)cc2-c2cc(=O)n(C(CCOC(C)(C)C)C(=O)Nc3ccc(C(N)=O)c(F)c3)cc2CO1 (mixture of isomers) [Example 21, 4-{[4-tert-Butoxy-2-(11-chloro-7-methyl-2-oxo-7,8-dihydro-2H-[3]benzoxocino[5,6-c]pyridin-3(5H)-yl)butanoyl]amino}-2-fluorobenzamide] | 830 | 63
9 | CC1Cc2ccc(Cl)cc2-c2cc(=O)n(C(CCOC(C)(C)C)C(=O)Nc3ccc(C(N)=O)cc3)cc2CO1 (mixture of isomers) [Example 23, 4-{[4-tert-Butoxy-2-(11-chloro-7-methyl-2-oxo-7,8-dihydro-2H-[3]benzoxocino[5,6-c]pyridin-3(5H)-yl)butanoyl]amino}benzamide] | 410 | 22
10 | CC[C@@H]1Cc2ccc(Cl)cc2-c2cc(=O)n(C(C[C@@H]3CCCCO3)C(=O)Nc3ccc(C(N)=O)c(F)c3)cc2CO1 (mixture of isomers) [Example 30, 4-{2-[(7R)-11-Chloro-7-ethyl-2-oxo-7,8-dihydro-2H-[3]benzoxocino[5,6-c]pyridin-3(5H)-yl]-3-[(2S)-tetrahydro-2H-pyran-2-yl]propanamido}-2-fluorobenzamide] | 1300 | 25
11 | NC(=O)c1ccc(NC(=O)C(C[C@@H]2CCCCO2)n2cc3c(cc2=O)-c2cc(Cl)ccc2CC(CO)OC3)cc1F (mixture of isomers) [Example 32, 4-{2-[11-Chloro-7-(hydroxymethyl)-2-oxo-7,8-dihydro-2H-[3]benzoxocino[5,6-c]pyridin-3(5H)-yl]-3-[(2S)-tetrahydro-2H-pyran-2-yl]propanamido}-2-fluorobenzamide] | 1300 | 30
12 | NC(=O)c1ccc(NC(=O)C(C[C@@H]2CCCCO2)n2cc3c(cc2=O)-c2cc(Cl)ccc2CC(CO)OC3)cc1 (mixture of isomers) [Example 34, 4-{2-[11-Chloro-7-(hydroxymethyl)-2-oxo-7,8-dihydro-2H-[3]benzoxocino[5,6-c]pyridin-3(5H)-yl]-3-[(2S)-tetrahydro-2H-pyran-2-yl]propanamido}benzamide] | 490 | 6.9
13 | NC(=O)c1ccc(NC(=O)C(C[C@@H]2COCCO2)n2cc3c(cc2=O)-c2cc(Cl)ccc2CC(CO)OC3)cc1 (mixture of isomers) [Example 36, 4-{2-[11-Chloro-7-(hydroxymethyl)-2-oxo-7,8-dihydro-2H-[3]benzoxocino[5,6-c]pyridin-3(5H)-yl]-3-[(2R)-1,4-dioxan-2-yl]propanamido}benzamide] | 1000 | 12
14 | CC(C)C1Cc2ccc(Cl)cc2-c2cc(=O)n(C(C[C@@H]3COCCO3)C(=O)Nc3ccc(C(N)=O)c(F)c3)cc2CO1 (mixture of isomers) [Example 40, 4-({2-(11-Chloro-7-isopropyl-2-oxo-7,8-dihydro-2H-[3]benzoxocino[5,6-c]pyridin-3(5H)-yl)-3-[(2R)-1,4-dioxan-2-yl]propanoyl}amino)-2-fluorobenzamide] | 4800 | 41
15 | CC(C)C1Cc2ccc(Cl)cc2-c2cc(=O)n(C(C[C@@H]3COCCO3)C(=O)Nc3ccc(C(N)=O)cc3)cc2CO1 (mixture of isomers) [Example 42, 4-({2-(11-Chloro-7-isopropyl-2-oxo-7,8-dihydro-2H-[3]benzoxocino[5,6-c]pyridin-3(5H)-yl)-3-[(2R)-1,4-dioxan-2-yl]propanoyl}amino)benzamide] | 810 | 3.6
16 | CC(C)C1Cc2ccc(Cl)cc2-c2cc(=O)n(C(C[C@@H]3COCCO3)C(=O)Nc3ccc4nn(C)nc4c3)cc2CO1 (mixture of isomers) [Example 44, 2-(11-Chloro-7-isopropyl-2-oxo-7,8-dihydro-2H-[3]benzoxocino[5,6-c]pyridin-3(5H)-yl)-3-[(2R)-1,4-dioxan-2-yl]-N-(2-methyl-2H-benzotriazol-5-yl)propanamide] | 1600 | 49
17 | CC[C@@H](C(=O)Nc1ccc(C(N)=O)c(F)c1)n1cc2c(cc1=O)-c1cc(Cl)ccc1CC(C(F)F)OC2 (mixture of isomers) [Example 46, 4-({(2S)-2-[11-Chloro-7-(difluoromethyl)-2-oxo-7,8-dihydro-2H-[3]benzoxocino[5,6-c]pyridin-3(5H)-yl]butanoyl}amino)-2-fluorobenzamide] | 2300 | 110
18 | CC(C)[C@@H]1Cc2ccc(Cl)cc2-c2cc(=O)n([C@@H](C[C@@H]3CCCCO3)C(=O)Nc3ccc(C(N)=O)c(F)c3)cc2CO1 (single isomer, unassigned) [Example 39] | 2000 | –
